A short description of assay [1]: HEK-293T viability loss, compound-treated – cell-based, uHTS hits, cytotoxicity control for B/T-cell NF-kB inhibitor project, dose response (AID 489019).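 Also: IC50 reflects cytotoxicity as loss of cell viability.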 The assay is classed as functional.
Assay [2] deals with Jurkat. Put plainly: blockers of NF-kB activation in T cells – Jurkat, luciferase reporter, luminescence, B- and T-cell, dose response (AID 489004).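 Also: NF-kB luciferase reporter Jurkat cells stimulated with PMA plus ionomycin.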 The assay is classed as functional, cell-based. The following applies: Homo sapiens.
Assay [3] in a line: viability loss in HEK293 cells – cell-based, plate reader, cherry-picked samples, cytotoxicity control, dose response (AID 743446). The assay is classed as functional.
A short description of assay [4]: toxicity toward HepG2 liver cells – cell-based, plate reader, cherry-pick, antagonist series, cytotoxicity control, dose response (AID 743416). The format is functional.
Another assay deals with Paired box protein Pax-8 (Homo sapiens, UniProt Q06710). Put plainly: PAX8 transcriptional activity inhibition in RMG-I – RMG-I cells, luciferase, cherry-pick, dose response (AID 687027).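 Also: luciferase reporter driven by Pax8 target thyroperoxidase promoter measured by SteadyGlo luminescence.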 The format is functional, cell-based.
Assay [5] can be described thus: blockers of bursicon-stimulated LGR2 cAMP reporter – cell-based, HEK293, CRE-luciferase reporter, cherry pick, set 2, dose response (AID 743343).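 Also: transfected cells were stimulated with diluted bursicon conditioned medium after compound addition.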 The assay is classed as functional.
In assay [6] the target is T1, Microphthalmia-associated transcription factor (Homo sapiens, UniProt O75030).
T1 sequence (O75030 whole entry): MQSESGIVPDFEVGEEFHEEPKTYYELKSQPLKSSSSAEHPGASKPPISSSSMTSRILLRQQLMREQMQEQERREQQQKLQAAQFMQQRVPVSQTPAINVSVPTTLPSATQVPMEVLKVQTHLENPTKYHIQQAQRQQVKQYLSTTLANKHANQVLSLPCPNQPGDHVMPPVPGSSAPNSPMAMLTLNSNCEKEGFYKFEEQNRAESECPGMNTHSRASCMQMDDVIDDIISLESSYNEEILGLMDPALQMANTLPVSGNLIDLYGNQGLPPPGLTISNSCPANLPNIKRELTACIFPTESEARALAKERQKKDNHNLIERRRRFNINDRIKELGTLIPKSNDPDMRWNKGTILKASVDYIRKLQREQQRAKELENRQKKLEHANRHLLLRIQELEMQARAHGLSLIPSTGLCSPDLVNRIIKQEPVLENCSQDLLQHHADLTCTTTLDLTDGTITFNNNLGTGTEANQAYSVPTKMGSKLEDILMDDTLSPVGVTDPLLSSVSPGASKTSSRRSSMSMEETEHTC
The assay can be described thus: reducers of TRPM1 reporter luminescence, concentration series – cell-based, SK-MEL-5, cherry-picked, set 3, MITF inhibitor project, dose response (AID 493073).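 Also: SK-MEL-5 melanoma cells with luciferase driven by the MITF target TRPM1 promoter.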 The assay is classed as functional.

Assay [7] in a line: general cell-killing toxicity readout – plate reader, dry powder samples, cytotoxicity control for PAX8 inhibitor project, dose response (AID 743021). The format is functional, cell-based.
Assay [8] is described as follows: blockade of melanocortin 4 receptor signaling – cell-based, plate reader, cherry pick, counter-screen for LGR2 antagonist project, dose response (AID 743444).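 Also: transfected HEK 293 cells stimulated with alpha-MSH peptide; potency of inhibitors of the alpha-MSH evoked signal.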 The assay is classed as functional.
Assay [9] is described as follows: A549 cell cytotoxicity, dose response, cytotoxicity control, plate reader, cherry-pick, antagonist series (AID 743412). The format is functional, cell-based.
Another assay deals with Exodeoxyribonuclease V (Escherichia coli (strain K12), UniProt P04993+P07648+P08394). The assay can be described thus: RecBCD inhibition via phage-restricted bacterial growth – absorbance, V66 E. coli, mutant T4 phage, counter-screen for AddAB inhibitor project, dose response (AID 492957). The format is functional, cell-based, Escherichia coli str. K-12 substr. MG1655.
Assay [10] can be described thus: Counterscreen for AddAB inhibitors: absorbance-based bacterial cell-based high throughput dose response assay for inhibitors of bacterial viability. [Related pubchem assays (depositor defined):AID435030, AID449728, AID449731, AID488942, AID488955, AID488956]. The assay is classed as functional.
For assay [11], the target named is Nucleotide-binding oligomerization domain-containing protein 1 (Homo sapiens, UniProt Q9Y239). The assay can be described thus: blockers of NOD1 pathway activity – revised, SAR follow-up (AID 2333). The assay is classed as functional.
For a further assay, the target named is Tumor necrosis factor (Homo sapiens, UniProt P01375). The assay can be described thus: analog potency on TNFa NF-kB signaling – cell-based, revised, SAR follow-up (AID 2337). The assay is classed as functional.
Assay [12] concerns HEK293. The assay can be described thus: cells. The following applies: Homo sapiens.
For assay [13], the target named is Nucleotide-binding oligomerization domain-containing protein 2 (Homo sapiens, UniProt Q9HC29). Put plainly: PubChem AID 2334. The format is functional.
Assay [14] has as its system HEK293. Put plainly: HEK293T cell viability loss, resazurin readout – resazurin fluorescence, cytotoxicity control for NF-kB activator project, SAR follow-up (AID 493251). The format is functional, cell-based. Particulars: Homo sapiens.
Assay [15] relates to HEK293. The assay can be described thus: SAR Analysis of small molecule inhibitors of T-cell specific antigen receptor-induced NF-kB activation in a HEK-293T cell line using a luminescence assay - Set 2. [Related pubchem assays (depositor defined):AID435003, AID435012, AID489026]. The assay is classed as functional, cell-based. Particulars: Homo sapiens.
In assay [16] the test system is Jurkat. Put plainly: SAR Analysis of small molecule inhibitors of T-cell specific antigen receptor-induced NF-kB activation in a Jurkat cell line using a luminescence assay - Set 2. [Related pubchem assays (depositor defined):AID435003, AID435012, AID465]. The assay is classed as functional, cell-based. The following applies: Homo sapiens.
Assay [17] has as its target Serine/threonine-protein phosphatase (Candida dubliniensis (strain CD36 / CBS 7987 / NCPF 3949 / NRRLY-17841) (Yeast), UniProt B9W6M3). Put plainly: Fluorescence Cell-Based Secondary Assay to Identify Inhibitors of Calcineurin. [Related pubchem assays (depositor defined):AID1979, AID2007]. The assay is classed as functional.
Assay [18] concerns the target T2, Dual specificity protein phosphatase 3 (Homo sapiens, UniProt P51452). The assay can be described thus: VHR1 phosphatase inhibitors, biochemical (AID 1878).
Assay [19] addresses T2, Dual specificity protein phosphatase 3. Put plainly: VHR1 phosphatase inhibitors, primary screen, biochemical, absorbance, uHTS (AID 1654).
In assay [20] the target is T3, Dual specificity protein phosphatase 6 (Rattus norvegicus, UniProt Q64346).
T3 sequence (Q64346 whole entry): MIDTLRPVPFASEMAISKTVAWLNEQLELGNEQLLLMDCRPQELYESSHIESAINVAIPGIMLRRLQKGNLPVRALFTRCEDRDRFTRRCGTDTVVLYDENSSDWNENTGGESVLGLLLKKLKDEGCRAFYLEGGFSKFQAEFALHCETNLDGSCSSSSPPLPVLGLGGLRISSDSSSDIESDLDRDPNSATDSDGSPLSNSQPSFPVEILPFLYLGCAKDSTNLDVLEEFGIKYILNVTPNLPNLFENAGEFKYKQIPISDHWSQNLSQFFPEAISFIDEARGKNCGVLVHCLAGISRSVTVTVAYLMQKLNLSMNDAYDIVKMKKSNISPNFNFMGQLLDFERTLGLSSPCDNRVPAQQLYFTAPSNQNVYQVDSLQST
Put plainly: inhibition of rat DUSP6 enzyme activity – biochemical, in vitro, primary screen (AID 425).

Assay [21] can be described thus: restored growth of temperature-sensitive Burl-1 yeast – whole organism, S. cerevisiae, Burl-1 ts mutant, luminescence, counter-screen for SUMOylation pathway inhibitor project, dose response (AID 463199). The format is functional.

Among the data in ChEMBL document CHEMBL1201862, “PubChem BioAssay data set” (2004) are IC50, AC50 and EC50 values, retold here.

Active and inactive are the calls of the source. A value given as a limit tells only on which side of the number the result lay.

T2 sequence (P51452 whole entry): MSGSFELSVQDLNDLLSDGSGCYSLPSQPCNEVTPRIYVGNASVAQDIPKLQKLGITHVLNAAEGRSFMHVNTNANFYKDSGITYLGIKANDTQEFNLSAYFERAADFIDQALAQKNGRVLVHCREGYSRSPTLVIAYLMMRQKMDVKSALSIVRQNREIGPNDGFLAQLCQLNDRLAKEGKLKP
Sequence of Paired box protein Pax-8 (Q06710 whole entry): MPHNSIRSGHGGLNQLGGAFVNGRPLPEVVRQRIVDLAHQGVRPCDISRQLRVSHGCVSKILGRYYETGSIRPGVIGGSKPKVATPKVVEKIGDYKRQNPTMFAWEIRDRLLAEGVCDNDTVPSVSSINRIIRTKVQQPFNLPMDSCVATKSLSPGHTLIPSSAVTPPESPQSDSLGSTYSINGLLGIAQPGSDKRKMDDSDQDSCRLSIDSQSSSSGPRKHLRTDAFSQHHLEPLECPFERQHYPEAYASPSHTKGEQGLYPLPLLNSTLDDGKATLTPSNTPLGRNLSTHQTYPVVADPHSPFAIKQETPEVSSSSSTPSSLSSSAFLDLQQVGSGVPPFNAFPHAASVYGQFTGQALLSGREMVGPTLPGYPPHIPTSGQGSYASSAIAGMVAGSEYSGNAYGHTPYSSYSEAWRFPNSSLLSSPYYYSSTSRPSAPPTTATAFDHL
Sequence of Serine/threonine-protein phosphatase (B9W6M3 whole entry): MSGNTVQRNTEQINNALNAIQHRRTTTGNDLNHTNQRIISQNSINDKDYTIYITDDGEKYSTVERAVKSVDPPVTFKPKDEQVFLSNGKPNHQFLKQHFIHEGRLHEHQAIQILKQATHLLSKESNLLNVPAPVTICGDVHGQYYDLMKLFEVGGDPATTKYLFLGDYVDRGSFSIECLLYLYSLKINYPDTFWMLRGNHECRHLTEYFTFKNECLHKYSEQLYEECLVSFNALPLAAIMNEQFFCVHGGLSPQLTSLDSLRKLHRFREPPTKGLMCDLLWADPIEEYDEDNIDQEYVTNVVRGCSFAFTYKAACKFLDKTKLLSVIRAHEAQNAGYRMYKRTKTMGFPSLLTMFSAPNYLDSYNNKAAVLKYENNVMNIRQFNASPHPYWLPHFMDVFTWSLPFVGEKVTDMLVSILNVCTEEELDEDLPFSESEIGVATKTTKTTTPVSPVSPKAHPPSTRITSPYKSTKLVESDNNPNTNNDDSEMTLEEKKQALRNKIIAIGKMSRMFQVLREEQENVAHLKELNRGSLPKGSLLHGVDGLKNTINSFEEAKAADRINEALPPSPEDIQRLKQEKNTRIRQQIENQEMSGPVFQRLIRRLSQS
Sequence of Nucleotide-binding oligomerization domain-containing protein 1 (Q9Y239 whole entry, the tested form may be a part): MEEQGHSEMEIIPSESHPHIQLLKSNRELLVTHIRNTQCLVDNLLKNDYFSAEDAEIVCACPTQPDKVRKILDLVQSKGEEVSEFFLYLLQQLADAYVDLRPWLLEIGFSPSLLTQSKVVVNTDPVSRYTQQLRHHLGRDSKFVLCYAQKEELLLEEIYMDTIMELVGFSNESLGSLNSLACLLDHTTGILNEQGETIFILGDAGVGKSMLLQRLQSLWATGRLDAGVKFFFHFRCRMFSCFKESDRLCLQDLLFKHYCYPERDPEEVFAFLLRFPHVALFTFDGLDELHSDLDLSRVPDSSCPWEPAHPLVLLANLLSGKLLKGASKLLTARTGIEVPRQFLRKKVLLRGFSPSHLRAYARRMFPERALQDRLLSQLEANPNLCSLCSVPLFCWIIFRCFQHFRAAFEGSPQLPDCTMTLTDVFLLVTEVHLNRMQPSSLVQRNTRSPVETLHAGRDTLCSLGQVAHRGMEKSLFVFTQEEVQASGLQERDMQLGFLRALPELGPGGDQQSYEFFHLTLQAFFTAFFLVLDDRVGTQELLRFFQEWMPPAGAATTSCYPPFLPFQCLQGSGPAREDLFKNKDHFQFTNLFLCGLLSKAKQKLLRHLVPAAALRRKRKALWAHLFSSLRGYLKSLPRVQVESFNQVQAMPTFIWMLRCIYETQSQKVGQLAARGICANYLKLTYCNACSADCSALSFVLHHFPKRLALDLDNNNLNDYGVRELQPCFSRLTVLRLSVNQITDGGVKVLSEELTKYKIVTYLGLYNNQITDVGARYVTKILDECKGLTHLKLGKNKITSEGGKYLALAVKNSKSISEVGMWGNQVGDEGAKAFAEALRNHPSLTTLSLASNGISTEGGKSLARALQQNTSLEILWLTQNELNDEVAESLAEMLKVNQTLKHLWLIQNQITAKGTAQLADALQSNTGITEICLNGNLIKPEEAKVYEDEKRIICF
Sequence of Nucleotide-binding oligomerization domain-containing protein 2 (Q9HC29 whole entry, the tested form may be a part): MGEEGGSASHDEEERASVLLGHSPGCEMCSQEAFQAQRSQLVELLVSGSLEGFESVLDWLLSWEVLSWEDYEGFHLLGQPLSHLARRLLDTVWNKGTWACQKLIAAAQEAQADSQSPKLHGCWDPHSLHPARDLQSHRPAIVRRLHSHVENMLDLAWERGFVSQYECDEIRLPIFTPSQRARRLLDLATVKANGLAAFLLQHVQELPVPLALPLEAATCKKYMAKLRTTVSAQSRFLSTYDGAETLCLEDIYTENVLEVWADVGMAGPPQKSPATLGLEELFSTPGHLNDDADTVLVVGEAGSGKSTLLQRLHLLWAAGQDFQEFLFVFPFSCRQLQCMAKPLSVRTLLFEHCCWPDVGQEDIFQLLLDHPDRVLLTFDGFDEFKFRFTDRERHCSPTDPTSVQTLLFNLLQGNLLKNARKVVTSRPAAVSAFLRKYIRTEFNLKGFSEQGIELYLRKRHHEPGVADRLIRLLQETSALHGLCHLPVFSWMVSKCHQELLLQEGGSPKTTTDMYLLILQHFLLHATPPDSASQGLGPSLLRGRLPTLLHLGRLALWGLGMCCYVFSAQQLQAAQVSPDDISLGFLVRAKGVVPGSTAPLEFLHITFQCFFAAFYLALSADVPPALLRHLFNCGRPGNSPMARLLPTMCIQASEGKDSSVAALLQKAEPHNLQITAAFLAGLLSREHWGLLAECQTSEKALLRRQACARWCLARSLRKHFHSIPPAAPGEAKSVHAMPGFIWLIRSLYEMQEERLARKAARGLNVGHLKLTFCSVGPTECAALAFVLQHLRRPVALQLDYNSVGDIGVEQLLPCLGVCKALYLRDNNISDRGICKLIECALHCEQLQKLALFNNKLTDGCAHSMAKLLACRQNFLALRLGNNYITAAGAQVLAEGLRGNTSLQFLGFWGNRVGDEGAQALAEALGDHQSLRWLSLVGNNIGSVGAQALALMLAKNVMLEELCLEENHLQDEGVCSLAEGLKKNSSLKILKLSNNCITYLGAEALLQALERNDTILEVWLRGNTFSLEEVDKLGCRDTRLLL
Sequence of Tumor necrosis factor (P01375 whole entry): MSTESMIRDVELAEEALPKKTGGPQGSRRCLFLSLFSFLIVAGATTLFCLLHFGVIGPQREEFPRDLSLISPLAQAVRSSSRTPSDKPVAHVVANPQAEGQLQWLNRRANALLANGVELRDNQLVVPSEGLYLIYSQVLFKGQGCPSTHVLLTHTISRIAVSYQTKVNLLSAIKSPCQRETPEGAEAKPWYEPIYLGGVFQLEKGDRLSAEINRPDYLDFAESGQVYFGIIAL

In the case of `CCOc1ccc(NC(=O)Nc2cccc(C(=O)O)c2)cc1`, the IC50 in assay [1] was > 80 µM (inactive); with Jurkat [2] it was 0.85 µM (active). Besides, the half-maximal activity concentration (AC50) in assay [3] is 40.4 µM (active); in assay [4], > 52 µM (inactive); on Paired box protein Pax-8 it was 3.85 µM (active); in assay [5] it was 0.303 µM (active); in assay [6] it was 1.53 µM (active); in assay [7], 11.7 µM (active). In addition, the figures for the AC50 in [8] and in assay [9] were 0.319 µM (active) and 45.1 µM (active), respectively.
For `O=C(Cc1ccc2c(c1)OCO2)NN=Cc1ccc([N+](=O)[O-])o1`, the IC50 on Exodeoxyribonuclease V was > 39.5 µM (inactive); in assay [10], 21 µM (inactive). Also, in [6], the AC50 is 8.55 µM (active).
With `CC(C)(C)NC(=S)NNC=C1C=C(Br)C(=O)C(Br)=C1`, the IC50 in assay [11] was 7.29 µM (active); on Tumor necrosis factor, 15.6 µM (active); in the assay on HEK293 [12] it was > 20 µM (inactive); in assay [13], 7.93 µM (active).
Consider `CC(=O)c1cccc(NC(=O)c2ccc([N+](=O)[O-])o2)c1`, for which the IC50 in the assay on HEK293 [14] is 69.3 µM (inactive); in the assay with HEK293 [15], 37.1 µM (inactive); in the assay with Jurkat [16], 27.6 µM (inactive).
On to `O=C(Nc1nnc(SCc2ccc(Cl)cc2)s1)c1ccc2ccccc2n1`, for which the EC50 in [17] is > 285 µM (inactive).
In the case of `O=C(O)c1cc(-c2ccc(/C=c3\sc4nc5ccc(Br)cc5n4c3=O)o2)ccc1Cl`, the IC50 in [18] was 1.42 µM (active); in assay [19], 3.97 µM (active); in [20], 12 µM (active).
`CCCCn1c(/N=C/c2ccc3c(c2)OCO3)nc2ccccc21`: the AC50 in [21] was 60 µM (active).
